US7417024B2, “Template-fixed peptidomimetics as inhibitors of serine proteases” (Polyphor Ltd., priority 2001, dated 2008)
Where a SMILES comes first, the peptide text is derived from it. Bridges are numbered along the chain shown (N, C = ends). [ ]: non-standard residue; d: D form.

T1: Trypsin (Bos taurus, UniProt P00760)
T1 sequence (P00760 24-246): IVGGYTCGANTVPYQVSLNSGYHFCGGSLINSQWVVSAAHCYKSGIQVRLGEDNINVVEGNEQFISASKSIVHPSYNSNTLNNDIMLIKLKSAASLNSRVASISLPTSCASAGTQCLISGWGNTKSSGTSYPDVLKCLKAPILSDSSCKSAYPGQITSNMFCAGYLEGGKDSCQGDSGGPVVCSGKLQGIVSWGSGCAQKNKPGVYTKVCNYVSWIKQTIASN

T2: Cathepsin G (human, UniProt P08311 21-244)
T2 construct: the assay paragraph itself says only 'cathepsin G ... purchased from Calbiochem'; also called human cathepsin G
T2 sequence (looked up): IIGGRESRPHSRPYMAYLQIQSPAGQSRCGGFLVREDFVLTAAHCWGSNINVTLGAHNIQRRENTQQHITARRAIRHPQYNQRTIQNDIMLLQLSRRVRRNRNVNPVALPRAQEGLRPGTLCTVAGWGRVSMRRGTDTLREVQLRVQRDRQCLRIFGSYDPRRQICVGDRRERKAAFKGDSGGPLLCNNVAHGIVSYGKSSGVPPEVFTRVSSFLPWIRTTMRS


What was measured:
Chymotrypsin [1] = biological target: Chymotrypsin (Homo sapiens, UniProt P17538); assay: Enzymatic assay, chymotrypsin inhibition (apparent Ki); type: biochemical; settings: substrate N-succinyl-Ala-Ala-Pro-Phe-4-nitroanilide 1.6 mM
Experimental: (§1) The active enzyme concentrations were calculated using the equation described by Hendersen (P. J. F. Hendersen, Biochem. J. 1972, 127, 321-333). The inhibitor concentrations were determined by quantitative amino acid analysis. All assays were repeated in quadruplicate.
(§2) As above, except the substrate was N-succinyl-L-alanyl-L-alanyl-L-prolyl-L-phenylalanin-4-nitroanilide (N-succinyl—SEQ ID NO:16—4-nitroanilide; 1.6 mM).
(§3) Apparent Ki values were calculated by fitting the initial rate data to the following equation, which assumes competitive tight-binding inhibition (J. F. Williams, J. F. Morrison, Methods Enzymol. 1979, 63, 437-467): […]

Trypsin [2] = biological target: T1, Trypsin; assay: Enzymatic assay, determination of antitrypsin activity (apparent Ki); type: biochemical; settings: competitive tight-binding fit
Experimental: as §1
Determination of Antitrypsin Activity
as §2, §3

Trypsin [3] = assay: enzyme inhibition, chromogenic substrate; apparent Ki fitted as competitive tight-binding inhibition
Chymotrypsin [4] = assay: as above
Cathepsin G = biological target: T2, Cathepsin G; assay: enzyme inhibition, Suc-Ala-Ala-Pro-Phe-pNA substrate, release of p-nitroanilide at 405 nm
Experimental: Determination of Anti Cathepsin G Activity […] of a solution of cathepsin G (0.2 U/mL, corresponding to around 2 µM, purchased from Calbiochem) were incubated for 15 minutes with increasing concentrations of inhibitor. The assays were carried out at 37° C. in a total volume of 700 µl of HEPES buffer (pH 7.5; 0.1 mol/L) containing 0.05 mol/L CaCl_2. Then, 70 µl of the following substrate at 20 mM in DMSO were added (—N-succinyl-L-alanyl-L-alanyl-L-prolyl-L-phenylalanin-4-nitroanilide, (N-succinyl—SEQ ID NO:16—4-nitroanilide). The release of p-nitroanilide was monitored at 405 nm to determine the initial velocities of the reactions. Each measurement was reproduced three times (A. J. Barrett, Methods in Enzymology 1981, 80, 561-565).

Sequence of Chymotrypsin (Homo sapiens, UniProt P17538) (P17538 19-263): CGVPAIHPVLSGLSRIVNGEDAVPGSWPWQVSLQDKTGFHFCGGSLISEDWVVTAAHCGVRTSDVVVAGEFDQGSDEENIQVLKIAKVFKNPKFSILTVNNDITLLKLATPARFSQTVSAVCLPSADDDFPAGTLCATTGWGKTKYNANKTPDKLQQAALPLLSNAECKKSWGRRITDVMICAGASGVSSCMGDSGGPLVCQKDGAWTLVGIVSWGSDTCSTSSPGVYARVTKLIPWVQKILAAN

Row | Ki (Chymotrypsin [1]) | Ki (Trypsin [2]) | Molecule | further results
1 | > 10000 nM | 100 nM | CC[C@H](C)[C@@H]1NC(=O)[C@@H]2CCCN2C(=O)[C@@H]2CCCN2C(=O)[C@H]([C@@H](C)CC)NC(=O)[C@H](CO)NC(=O)[C@H](CCCCN)NC(=O)[C@H]([C@@H](C)O)NC(=O)[C@@H]2CCCN2C(=O)[C@H]2CCCN2C1=O [Ex. 1] (cyclo(TKSIPPI[dP]P)) | –
2 | – | 1500 nM | CC[C@H](C)[C@@H]1NC(=O)[C@@H]2CCCN2C(=O)[C@@H]2CCCN2C(=O)[C@H]([C@@H](C)CC)NC(=O)[C@H](CO)NC(=O)[C@H](CCCCN)NC(=O)[C@H](C)NC(=O)[C@@H]2CCCN2C(=O)[C@H]2CCCN2C1=O [Ex. 2] (cyclo(AKSIPPI[dP]P)) | –
3 | – | > 10000 nM | CC[C@H](C)[C@@H]1NC(=O)[C@@H]2CCCN2C(=O)[C@@H]2CCCN2C(=O)[C@H]([C@@H](C)CC)NC(=O)[C@H](CO)NC(=O)[C@H](C)NC(=O)[C@H]([C@@H](C)O)NC(=O)[C@@H]2CCCN2C(=O)[C@H]2CCCN2C1=O [Ex. 3] (cyclo(TASIPPI[dP]P)) | –
4 | – | 700 nM | CC[C@H](C)[C@@H]1NC(=O)[C@@H]2CCCN2C(=O)[C@@H]2CCCN2C(=O)[C@H]([C@@H](C)CC)NC(=O)[C@H](C)NC(=O)[C@H](CCCCN)NC(=O)[C@H]([C@@H](C)O)NC(=O)[C@@H]2CCCN2C(=O)[C@H]2CCCN2C1=O [Ex. 4] (cyclo(TKAIPPI[dP]P)) | –
5 | – | 1900 nM | CC[C@H](C)[C@@H]1NC(=O)[C@@H]2CCCN2C(=O)[C@@H]2CCCN2C(=O)[C@H](C)NC(=O)[C@H](CO)NC(=O)[C@H](CCCCN)NC(=O)[C@H]([C@@H](C)O)NC(=O)[C@@H]2CCCN2C(=O)[C@H]2CCCN2C1=O [Ex. 5] (cyclo(TKSAPPI[dP]P)) | –
6 | – | > 25000 nM | CC[C@H](C)[C@@H]1NC(=O)[C@H](CO)NC(=O)[C@H](CCCCN)NC(=O)[C@H]([C@@H](C)O)NC(=O)[C@@H]2CCCN2C(=O)[C@H]2CCCN2C(=O)[C@H]([C@@H](C)CC)NC(=O)[C@@H]2CCCN2C(=O)[C@H](C)NC1=O [Ex. 6] (cyclo(TKSIAPI[dP]P)) | –
7 | – | 110 nM | CC[C@H](C)[C@@H]1NC(=O)[C@H](C)NC(=O)[C@@H]2CCCN2C(=O)[C@H]([C@@H](C)CC)NC(=O)[C@H](CO)NC(=O)[C@H](CCCCN)NC(=O)[C@H]([C@@H](C)O)NC(=O)[C@@H]2CCCN2C(=O)[C@H]2CCCN2C1=O [Ex. 7] (cyclo(TKSIPAI[dP]P)) | –
8 | – | 710 nM | CC[C@H](C)[C@@H]1NC(=O)[C@H](CO)NC(=O)[C@H](CCCCN)NC(=O)[C@H]([C@@H](C)O)NC(=O)[C@@H]2CCCN2C(=O)[C@H]2CCCN2C(=O)[C@H](C)NC(=O)[C@@H]2CCCN2C(=O)[C@@H]2CCCN2C1=O [Ex. 8] (cyclo(TKSIPPA[dP]P)) | –
9 | 4400 nM | > 25000 nM | CC[C@H](C)[C@@H]1NC(=O)[C@@H]2CCCN2C(=O)[C@@H]2CCCN2C(=O)[C@H]([C@@H](C)CC)NC(=O)[C@H](CO)NC(=O)[C@H](Cc2ccc(O)cc2)NC(=O)[C@H]([C@@H](C)O)NC(=O)[C@@H]2CCCN2C(=O)[C@H]2CCCN2C1=O [Ex. 9] (cyclo(TYSIPPI[dP]P)) | –
10 | 1400 nM | > 20000 nM | CC[C@H](C)[C@@H]1NC(=O)[C@@H]2CCCN2C(=O)[C@@H]2CCCN2C(=O)[C@H]([C@@H](C)CC)NC(=O)[C@H](CO)NC(=O)[C@H](Cc2c[nH]c3ccccc23)NC(=O)[C@H]([C@@H](C)O)NC(=O)[C@@H]2CCCN2C(=O)[C@H]2CCCN2C1=O [Ex. 10] (cyclo(TWSIPPI[dP]P)) | –
11 | 4700 nM | > 20000 nM | CC[C@H](C)[C@@H]1NC(=O)[C@@H]2CCCN2C(=O)[C@@H]2CCCN2C(=O)[C@H]([C@@H](C)CC)NC(=O)[C@H](CO)NC(=O)[C@H](Cc2ccccc2)NC(=O)[C@H]([C@@H](C)O)NC(=O)[C@@H]2CCCN2C(=O)[C@H]2CCCN2C1=O [Ex. 11] (cyclo(TFSIPPI[dP]P)) | –
12 | 3800 nM | 21 nM | CC[C@H](C)[C@@H]1NC(=O)[C@@H]2CCCN2C(=O)[C@@H]2CCCN2C(=O)[C@H]([C@@H](C)CC)NC(=O)[C@H](CO)NC(=O)[C@H](CCCCN)NC(=O)[C@H]([C@@H](C)O)NC(=O)[C@@H]2CSSC[C@H](NC1=O)C(=O)N[C@@H](Cc1ccccc1)C(=O)N1CCC[C@@H]1C(=O)N1CCC[C@H]1C(=O)N[C@@H](CCCNC(=N)N)C(=O)N2 [Ex. 15] (cyclo(RCTKSIPPICF[dP]P); disulfide 2-10) | –
13 | – | – | cyclo(RCTKSIPPICF[dP]P) (disulfide 2-10; SMILES CC[C@H](C)[C@@H]1NC(=O)[C@@H]2CCCN2C(=O)[C@@H]2CCCN2C(=O)[C@H]([C@@H](C)CC)NC(=O)[C@H](CO)NC(=O)[C@H](CCCCN)NC(=O)[C@H]([C@@H](C)O)NC(=O)[C@@H]2CSSC[C@H](NC1=O)C(=O)N[C@@H](Cc1ccccc1)C(=O)N1CCC[C@@H]1C(=O)N1CCC[C@H]1C(=O)N[C@@H](CCCNC(=N)N)C(=O)N2, n=11 mimetic made by procedure 3 (disulfide between P2 and P10)) [Ex. 15] | Ki (Trypsin [3]): 21 nM; Ki (Chymotrypsin [4]): 3800 nM; Ki (Cathepsin G): 10000 nM
14 | – | – | cyclo(TKSIPPI[dP]P) (SMILES CC[C@H](C)[C@@H]1NC(=O)[C@@H]2CCCN2C(=O)[C@@H]2CCCN2C(=O)[C@H]([C@@H](C)CC)NC(=O)[C@H](CO)NC(=O)[C@H](CCCCN)NC(=O)[C@H]([C@@H](C)O)NC(=O)[C@@H]2CCCN2C(=O)[C@H]2CCCN2C1=O, Template-fixed beta-hairpin mimetic, cyclic; parent of the Ala scan) [Ex. 1] | Ki (Trypsin [3]): 100 nM; Ki (Cathepsin G): 100000 nM
